Experimental data published in patent publication US10144758B2, “Deuterated bile acids” (Metselex, Inc., priority 2013, dated 2018).

System: primary rat hepatocytes
Assay: DCA-induced cytotoxicity, LDH release
Format: cell-based
Protocol: Primary rat hepatocytes were isolated from male rats (100-150 grams) by collagenase perfusion (as described by Solá S, et al., 2003, Journal of Biological Chemistry 278: 48831-48838)). Briefly, rats were anesthetized with phenobarbital sodium (100 mg/kg body weight) injected into the peritoneal cavity. After administration of heparin (200 units/kg body weight) in the tail vein, the animal's abdomen was opened and the portal vein exposed and cannulated. The liver was then perfused at 37° C. in situ with a calcium-free Hanks' Balanced Salt Solution (HBSS) for about 10 minutes, and then with 0.05% collagenase type IV in calcium-present HBSS for another 10 minutes. Hepatocyte suspensions were obtained by passing collagenase-digested livers through 125 μm gauze and washing cells in Complete William's E medium (William's E medium, Sigma-Aldrich Corp., St Louis, Mo., USA) supplemented with 26 mM sodium bicarbonate, 23 mM HEPES, 0.01 units/mL insulin, 2 mM L-glutamine, 10 nM dexamethasone, 100 units/mL penicillin, and 10% heat-inactivated fetal bovine serum (Invitrogen Corp., Carlsbad, Calif., USA). Viable primary rat hepatocytes were enriched by low-speed centrifugation at 200 g for 3 minutes. Cell viability was determined by trypan blue exclusion and was typically 80-85%. After isolation, hepatocytes were resuspended in Complete William's E medium and plated on PrimariaTM tissue culture dishes (BD Biosciences, San Jose, Calif., USA) at 5×10^4 cells/cm^2. Cells were maintained at 37° C. in a humidified atmosphere of 5% CO2 for 6 hours to allow attachment. Plates were then washed with medium to remove dead cells and incubated in Complete William's E medium supplemented with either 100-400 μM UDCA (Sigma-Aldrich Corp.), 100-400 μM deuterated UDCA (compound 5), or no addition (control). Eight hours after pre-incubation, cells were exposed to 1 nM recombinant human TGF-β1 (R&D Systems Inc., Minneapolis, Minn., USA) for 36 hours, or to 50 or 100 μM DCA for 16 hours before processing for cell viability, cytotoxicity and apoptosis assays. The ApoTox-GloTM Triplex Assay (Promega Corp., Madison, Wis., USA) was used to evaluate cell viability, cytotoxicity and caspase-3/7 activity, according to the manufacturer's protocol, using a GloMax+ Multi Detection System (Promega Corp.). General cell death was also evaluated using the lactate dehydrogenase (LDH) Cytotoxicity Detection Kit^PLUS (Roche Diagnostics GmbH, Mannheim, Germany), following the manufacturer's instructions. FIG. 7 illustrates that Compound 5 prevents DCA-induced cytotoxicity and apoptosis in primary rat hepatocytes. […] Results are expressed as means±SEM of at least three experiments. *p<0.01 from control; § p<0.05 and †p<0.01 from respective DCA.

| Molecule | inhibition at 100 µM (Rattus norvegicus, Hepatocyte, 50 μM DCA 16 hours, 100 μM compound pre-incubated 8 hours, FIG. 7A) [%] | inhibition of DCA-induced LDH release (50 μM DCA 16 hours, 100 μM compound pre-incubated 8 hours, FIG. 7A) [%] | protective effect on LDH release greater than UDCA (50 μM DCA, Compound 5 versus UDCA) | protection against DCA-induced LDH release (100 μM DCA, compared with 50 μM DCA) |
| --- | --- | --- | --- | --- |
| C[C@H](CCC(=O)O)[C@H]1CC[C@H]2[C@@H]3[C@@H](O)C[C@@H]4C[C@H](O)CC[C@]4(C)[C@H]3CC[C@]12C [UDCA, Ursodeoxycholic acid, reference compound] | 70 | – | – | – |
| 7,8-[^2H]-3α,7α-dihydroxy-5β-cholan-24-oic acid/7-[^2H]-3α,7α-dihydroxy-5β-cholan-24-oic acid [Compound 5] | – | 90 | more than 10% | Slightly reduced protection |
